“And” between values parts separate entries of the source, which are not always exact repeats. Equal entries are not always repeated.
Tests used:
p75^NTR TMD I252A = biological target: T1, p75^NTR TMD I252A (Homo sapiens, UniProt P08138, I252A); experiment: AraTM assay, I252A mutant p75NTR TMD; type: cell-based; details: for GFP/OD630, p75NTR I252A, Mean: N=3;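 as to GFP/OD630, p75NTR I252A, Mean: 100% is wild-type TMD GFP/OD630 signal without drug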;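 as to GFP/OD630, p75NTR I252A, n1-n3: 100% is wild-type TMD GFP/OD630 signal without drug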
T1 construct: Comparison of wild-type (WT) p75^NTR TMD and I252A, P253G and V254A mutants in the AraTM assay; expressed in transfected cells; host or cells: E. coli AS19 (LPS-negative)
T1 sequence (P08138 250-275 I252A): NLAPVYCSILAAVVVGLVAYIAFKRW

A875 shp75 cells = experiment: Wound healing cell motility assay, A875 shp75; type: cell-based, human; details: for Wound area, Mean: N=3; for Wound area (Fold): A875 shp75, 1uM
Experimental: For wound healing assay, cells were grown until confluency and subjected to a wound across the cell mono-layer. Cells were then incubated with serum-free media either with DMSO or a small molecule (with or without 5 µM Q_VD_poH) and imaged at specific time-points. Cell migration is reflected as fold change in wound area over time.

[1] = 5μM Q_VD_poH + 10μM Div17E5, 0 hours
[2] = 5μM Q_VD_poH + 10μM Div17E5, 3 hours
[3] = 5μM Q_VD_poH + 10μM Div17E5, 6 hours
[4] = 5μM Q_VD_poH + 10μM Div17E5, 9 hours
[5] = 5μM Q_VD_poH + 10μM Div17E5, 12 hours
[6] = 5μM Q_VD_poH + 10μM Div17E5, 15 hours
[7] = 5μM Q_VD_poH + 10μM Div17E5, 18 hours
[8] = 5μM Q_VD_poH + 10μM Div17E5, 21 hours
[9] = 5μM Q_VD_poH + 10μM Div17E5, 24 hours

With `Oc1ccc(-c2cncc(Nc3ccc(Br)c(Cl)c3)n2)cc1` [Div17E5] the “effect of Ile252 mutation on compound activity in AraTM assay” value (p75^NTR TMD I252A) was “abolished”, the “GFP/OD630, p75NTR I252A, n1-n3” value (p75^NTR TMD I252A; Div17E5 7.5 uM) was 99% and 104% and 92% and the “GFP/OD630, p75NTR I252A, Mean” value (p75^NTR TMD I252A; Div17E5 7.5 uM) was 98%. The “GFP/OD630, p75NTR I252A, n1-n3” value (p75^NTR TMD I252A; Div17E5 15 uM) was 98% and 107% and 87%, the “GFP/OD630, p75NTR I252A, Mean” value (p75^NTR TMD I252A; Div17E5 15 uM) was 97% and the “GFP/OD630, p75NTR I252A, n1-n3” value (p75^NTR TMD I252A; Div17E5 20 uM) was 96% and 91% and 100%. For the same molecule, the “GFP/OD630, p75NTR I252A, Mean” value (p75^NTR TMD I252A; Div17E5 20 uM) was 96%, the “GFP/OD630, p75NTR I252A, n1-n3” value (p75^NTR TMD I252A; Div17E5 50 uM) was 99% and 106% and 92% and the “GFP/OD630, p75NTR I252A, Mean” value (p75^NTR TMD I252A; Div17E5 50 uM) was 99%. For the same molecule, the wound closure (A875 shp75 cells) was “did not significantly affect wound closure”, the “Wound area, n1-n3” value (A875 shp75 cells; [1]) was 0.989 Fold and 0.886 Fold and 1.125 Fold and the “Wound area, Mean” value (A875 shp75 cells; [1]) was 1.000 Fold. For the same molecule, the “Wound area, n1-n3” value (A875 shp75 cells; [2]) was 0.947 Fold and 0.979 Fold and 1.007 Fold, the “Wound area, Mean” value (A875 shp75 cells; [2]) was 0.978 Fold and the “Wound area, n1-n3” value (A875 shp75 cells; [3]) was 0.959 Fold and 0.975 Fold and 0.953 Fold. The “Wound area, Mean” value (A875 shp75 cells; [3]) was 0.962 Fold, the “Wound area, n1-n3” value (A875 shp75 cells; [4]) was 0.955 Fold and 0.965 Fold and 0.942 Fold and the “Wound area, Mean” value (A875 shp75 cells; [4]) was 0.954 Fold. For the same molecule, the “Wound area, n1-n3” value (A875 shp75 cells; [5]) was 0.935 Fold and 0.950 Fold and 0.940 Fold, the “Wound area, Mean” value (A875 shp75 cells; [5]) was 0.941 Fold and the “Wound area, n1-n3” value (A875 shp75 cells; [6]) was 0.901 Fold and 0.902 Fold and 0.903 Fold. The “Wound area, Mean” value (A875 shp75 cells; [6]) was 0.902 Fold, the “Wound area, n1-n3” value (A875 shp75 cells; [7]) was 0.849 Fold and 0.823 Fold and the “Wound area, Mean” value (A875 shp75 cells; [7]) was 0.840 Fold. The “Wound area, n1-n3” value (A875 shp75 cells; [8]) was 0.828 Fold and 0.801 Fold and 0.783 Fold, the “Wound area, Mean” value (A875 shp75 cells; [8]) was 0.804 Fold and the “Wound area, n1-n3” value (A875 shp75 cells; [9]) was 0.790 Fold and 0.822 Fold and 0.793 Fold. For the same molecule, the “Wound area, Mean” value (A875 shp75 cells; [9]) was 0.801 Fold, the “Wound area, n1-n3” value (A875 shp75 cells; 10μM Div17E5, 0 hours) was 1.039 Fold and 1.010 Fold and 0.951 Fold and the “Wound area, Mean” value (A875 shp75 cells; 10μM Div17E5, 0 hours) was 1.000 Fold. For the same molecule, the “Wound area, n1-n3” value (A875 shp75 cells; 10μM Div17E5, 3 hours) was 0.987 Fold and 0.961 Fold and 0.970 Fold, the “Wound area, Mean” value (A875 shp75 cells; 10μM Div17E5, 3 hours) was 0.973 Fold and the “Wound area, n1-n3” value (A875 shp75 cells; 10μM Div17E5, 6 hours) was 0.982 Fold and 0.933 Fold and 0.919 Fold. For the same molecule, the “Wound area, Mean” value (A875 shp75 cells; 10μM Div17E5, 6 hours) was 0.945 Fold, the “Wound area, n1-n3” value (A875 shp75 cells; 10μM Div17E5, 9 hours) was 0.959 Fold and 0.914 Fold and 0.881 Fold and the “Wound area, Mean” value (A875 shp75 cells; 10μM Div17E5, 9 hours) was 0.918 Fold. For the same molecule, the “Wound area, n1-n3” value (A875 shp75 cells; 10μM Div17E5, 12 hours) was 0.961 Fold and 0.889 Fold and 0.887 Fold, the “Wound area, Mean” value (A875 shp75 cells; 10μM Div17E5, 12 hours) was 0.912 Fold and the “Wound area, n1-n3” value (A875 shp75 cells; 10μM Div17E5, 15 hours) was 0.930 Fold and 0.849 Fold and 0.852 Fold. The “Wound area, Mean” value (A875 shp75 cells; 10μM Div17E5, 15 hours) was 0.877 Fold, the “Wound area, n1-n3” value (A875 shp75 cells; 10μM Div17E5, 18 hours) was 0.858 Fold and 0.787 Fold and 0.795 Fold and the “Wound area, Mean” value (A875 shp75 cells; 10μM Div17E5, 18 hours) was 0.813 Fold. The “Wound area, n1-n3” value (A875 shp75 cells; 10μM Div17E5, 21 hours) was 0.855 Fold and 0.772 Fold and 0.767 Fold, the “Wound area, Mean” value (A875 shp75 cells; 10μM Div17E5, 21 hours) was 0.798 Fold and the “Wound area, n1-n3” value (A875 shp75 cells; 10μM Div17E5, 24 hours) was 0.867 Fold and 0.765 Fold and 0.792 Fold. The “Wound area, Mean” value (A875 shp75 cells; 10μM Div17E5, 24 hours) was 0.808 Fold, the “Wound area (Fold)” value (A875 shp75 cells; 0 h, Mean) was 1.000 Fold and the “Wound area (Fold)” value (A875 shp75 cells; 0 h, n1) was 0.980 Fold. For the same molecule, the “Wound area (Fold)” value (A875 shp75 cells; 0 h, n2) was 1.053 Fold, the “Wound area (Fold)” value (A875 shp75 cells; 0 h, n3) was 0.966 Fold and the “Wound area (Fold)” value (A875 shp75 cells; 3 h, Mean) was 0.957 Fold. For the same molecule, the “Wound area (Fold)” value (A875 shp75 cells; 3 h, n1) was 0.947 Fold, the “Wound area (Fold)” value (A875 shp75 cells; 3 h, n2) was 0.963 Fold and the “Wound area (Fold)” value (A875 shp75 cells; 3 h, n3) was 0.960 Fold. For the same molecule, the “Wound area (Fold)” value (A875 shp75 cells; 6 h, Mean) was 0.921 Fold, the “Wound area (Fold)” value (A875 shp75 cells; 6 h, n1) was 0.914 Fold and the “Wound area (Fold)” value (A875 shp75 cells; 6 h, n2) was 0.924 Fold. The “Wound area (Fold)” value (A875 shp75 cells; 6 h, n3) was 0.923 Fold, the “Wound area (Fold)” value (A875 shp75 cells; 9 h, Mean) was 0.898 Fold and the “Wound area (Fold)” value (A875 shp75 cells; 9 h, n1) was 0.889 Fold. For the same molecule, the “Wound area (Fold)” value (A875 shp75 cells; 9 h, n2) was 0.905 Fold, the “Wound area (Fold)” value (A875 shp75 cells; 9 h, n3) was 0.901 Fold and the “Wound area (Fold)” value (A875 shp75 cells; 12 h, Mean) was 0.873 Fold. The “Wound area (Fold)” value (A875 shp75 cells; 12 h, n1) was 0.869 Fold, the “Wound area (Fold)” value (A875 shp75 cells; 12 h, n2) was 0.870 Fold and the “Wound area (Fold)” value (A875 shp75 cells; 12 h, n3) was 0.881 Fold.
